Values of other authors, collected in patent EP3628310A1, “PHARMACEUTICAL COMPOSITION COMPRISING SOLID DISPERSIONS OF AMORPHOUS CLADRIBINE AND PHARMACEUTICALLY ACCEPTABLE WATER SOLUBLE CARRIER” (Synbias Pharma AG, priority 2018, dated 2020).
Read-outs that look alike come from different tables or passages of the source.

## Nc1nc(Cl)nc2c1ncn2[C@H]1C[C@H](O)[C@@H](CO)O1 [Tablet 2-CdA, 2-chloro-2'-deoxyadenosine]
pH 1, 37°C
  calculated half time T1/2: 22.2 min
pH 1, after 2 h of heating to 37°C
  2-CdA content: 2%
pH 2, 37°, after 6 h
  2-CdA remains in solution: 13%
pH 2, 37°C
  calculated half time T1/2: 96 min
